# Data taken from patent publication US5059624A, “Guanidine derivatives having hypotensive activity, composition containing them and process for obtaining them” (Consiglio Nazionale Delle Ricerche, priority 1988, dated 1991).
# Read-outs that look alike come from different tables or passages of the source.
# Tests used:
# [1] = Lethal dose 50 (LD50) through i.p. route in mice; settings: mouse, in vivo, ip
# Experimental: The lethal dose 50 (LD50) of guanido-I through i.p. route in mice turned out to be 57 mg±3.6 per kg.
# The lethal dose 50 (LD50) of the diguanido-II through i.p. route in mice, turned out to be 7 mg±0.6 per kg.
# cardiovascular responses = assay: Interaction and pretreatment experiments with diguanido-II (cardiovascular and respiratory responses); format: in vivo
# Experimental for male Wistar rats: In order to check its activity, diguanido-II was dissolved in a 0.9 % sodium chloride solution and administered through "rapid" i.v. route in male Wistar rats, under general anaesthesia obtained by means of 10% ethyl urethan (i ml/hg).
# The active ingredients called guanido-III, -IV, -V, as well as agmatine and galegine, were also tested, after having been administered through "rapid" i.v. route in male Wistar rats (weighing average 280±5 g) under general anaesthesia obtained by means of 10% ethyl uretan (1 ml/hg, i.p.). The general experimental conditions were exactly the same as previously mentioned for guanido-I and diguanido-II, so that the cardiovascular and respiratory effects could be compared.
# The parameters measured are as follows: systolic and diastolic systemic arterial pressure (AP), heart rate (HR), maximum rate of increase in the left ventricular isovolumetric pressure (dp/dt), respiratory frequency (RF) and tidal volume (TV). The doses (in μg/kg body weight, referred to the active substance) varied from 50 μg/kg to 6,400 μg/kg (ratio=2.0); in some cases higher does have been employed.
smiles,measurement,setting,value
COc1ccc([C@@H]2[C@@H](C(=O)NCCCCNC(=N)NCC=C(C)C)[C@@H](C(=O)NCCCCNC(=N)NCC=C(C)C)[C@@H]2c2ccc(OC)c(OC)c2)cc1OC [diguanido-II],LD50,[1],7 mg/kg
same,cardiovascular responses after previous treatment with Hexameton,cardiovascular responses; previous treatment with Hexameton (ganglioplegic),caused an increase in the cardiovascular responses
same,cardiovascular responses to acetylcholine and isoproterenol after previous treatment,"cardiovascular responses; previous treatment with diguanido-II, agonists i.v., linear with agonist dose","increased the cardiovascular responses to administration, through i.v. route, of acetylcholine and isoproterenol"
same,cardiovascular responses to nor-adrenaline and adrenaline after previous treatment,"cardiovascular responses; previous treatment with diguanido-II, hypertensive doses of agonists",decreased the cardiovascular responses induced by hypertensive doses of nor-adrenaline and of adrenaline
same,Δ AF,male Wistar rats; 50 μg/kg i.v.,+18.8 ± 3.40 ml/min
same,Δ AF %,male Wistar rats; 50 μg/kg i.v.,+43 ± 3%
same,Δ AP % DIAST,male Wistar rats; 50 μg/kg i.v.,+11.0 ± 1.7%
same,Δ AP % SYST,male Wistar rats; 50 μg/kg i.v.,+15.0 ± 2.7%
same,Δ AP DIAST,male Wistar rats; 50 μg/kg i.v.,+9.8 ± 1.7 mmHg
same,Δ AP SYST,male Wistar rats; 50 μg/kg i.v.,+17.2 ± 2.4 mmHg
same,Δ HR,male Wistar rats; 50 μg/kg i.v.,-9 ± 3 beats/min
same,Δ HR %,male Wistar rats; 50 μg/kg i.v.,-3 ± 1%
same,Δ SV,male Wistar rats; 50 μg/kg i.v.,+72.6 ± 5 μl
same,Δ SV %,male Wistar rats; 50 μg/kg i.v.,+61 ± 5%
same,Δ TV,male Wistar rats; 50 μg/kg i.v.,+13 ± 3%
same,Δ dp/dt,male Wistar rats; 50 μg/kg i.v.,+1070 ± 90 mmHg/sec
same,Δ dp/dt %,male Wistar rats; 50 μg/kg i.v.,+17 ± 4%
same,Δ AF,male Wistar rats; 100 μg/kg i.v.,+10.8 ± 1.20 ml/min
same,Δ AF %,male Wistar rats; 100 μg/kg i.v.,+25 ± 1%
same,Δ AP % DIAST,male Wistar rats; 100 μg/kg i.v.,+11.0 ± 1.1%
same,Δ AP % SYST,male Wistar rats; 100 μg/kg i.v.,+10.0 ± 2.6%
same,Δ AP DIAST,male Wistar rats; 100 μg/kg i.v.,+10.2 ± 1.1 mmHg
same,Δ AP SYST,male Wistar rats; 100 μg/kg i.v.,+11.7 ± 2.5 mmHg
same,Δ HR,male Wistar rats; 100 μg/kg i.v.,-10 ± 1 beats/min
same,Δ HR %,male Wistar rats; 100 μg/kg i.v.,-3 ± 1%
same,Δ SV,male Wistar rats; 100 μg/kg i.v.,+19.8 ± 6 μl
same,Δ SV %,male Wistar rats; 100 μg/kg i.v.,+17 ± 6%
same,Δ TV,male Wistar rats; 100 μg/kg i.v.,+4 ± 1%
same,Δ dp/dt,male Wistar rats; 100 μg/kg i.v.,+1129 ± 82 mmHg/sec
same,Δ dp/dt %,male Wistar rats; 100 μg/kg i.v.,+18 ± 1%
same,Δ AF,male Wistar rats; 200 μg/kg i.v.,-13.8 ± 4.20 mL/min
same,Δ AF %,male Wistar rats; 200 μg/kg i.v.,-32 ± 4%
same,Δ AP % DIAST,male Wistar rats; 200 μg/kg i.v.,-9.0 ± 1.8%
same,Δ AP % SYST,male Wistar rats; 200 μg/kg i.v.,-13.0 ± 1.4%
same,Δ AP DIAST,male Wistar rats; 200 μg/kg i.v.,-13.1 ± 1.8 mmHg
same,Δ AP SYST,male Wistar rats; 200 μg/kg i.v.,-14.4 ± 1.4 mmHg
same,Δ HR,male Wistar rats; 200 μg/kg i.v.,-13 ± 4 beats/min
same,Δ HR %,male Wistar rats; 200 μg/kg i.v.,-4 ± 0.3%
same,Δ SV,male Wistar rats; 200 μg/kg i.v.,+23.1 ± 6 μl
same,Δ SV %,male Wistar rats; 200 μg/kg i.v.,+19 ± 6%
same,Δ TV,male Wistar rats; 200 μg/kg i.v.,+3 ± 2%
same,Δ dp/dt,male Wistar rats; 200 μg/kg i.v.,+1369 ± 170 mmHg/sec
same,Δ dp/dt %,male Wistar rats; 200 μg/kg i.v.,+21 ± 4%
same,Δ AF,male Wistar rats; 400 μg/kg i.v.,-14.3 ± 5.7 mL/min
same,Δ AF %,male Wistar rats; 400 μg/kg i.v.,-33 ± 6%
same,Δ AP % DIAST,male Wistar rats; 400 μg/kg i.v.,-18.0 ± 1.4%
same,Δ AP % SYST,male Wistar rats; 400 μg/kg i.v.,-18.0 ± 1.9%
same,Δ AP DIAST,male Wistar rats; 400 μg/kg i.v.,-17.0 ± 1.4 mmHg
same,Δ AP SYST,male Wistar rats; 400 μg/kg i.v.,-19.8 ± 1.9 mmHg
same,Δ HR,male Wistar rats; 400 μg/kg i.v.,-16 ± 5 beats/min
same,Δ HR %,male Wistar rats; 400 μg/kg i.v.,-5 ± 2%
same,Δ SV,male Wistar rats; 400 μg/kg i.v.,-46.2 ± 4 µL
same,Δ SV %,male Wistar rats; 400 μg/kg i.v.,-39 ± 4%
same,Δ TV,male Wistar rats; 400 μg/kg i.v.,-51 ± 7%
same,Δ dp/dt,male Wistar rats; 400 μg/kg i.v.,+2615 ± 181 mmHg/sec
same,Δ dp/dt %,male Wistar rats; 400 μg/kg i.v.,+41 ± 5%
same,Δ AF,male Wistar rats; 800 μg/kg i.v.,-25.0 ± 6.1 mL/min
same,Δ AF %,male Wistar rats; 800 μg/kg i.v.,-57 ± 6%
same,Δ AP % DIAST,male Wistar rats; 800 μg/kg i.v.,-34.0 ± 3.1%
same,Δ AP % SYST,male Wistar rats; 800 μg/kg i.v.,-27.0 ± 3.6%
same,Δ AP DIAST,male Wistar rats; 800 μg/kg i.v.,-31.2 ± 3.1 mmHg
same,Δ AP SYST,male Wistar rats; 800 μg/kg i.v.,-30.0 ± 3.6 mmHg
same,Δ HR,male Wistar rats; 800 μg/kg i.v.,-16 ± 5.5 beats/min
same,Δ HR %,male Wistar rats; 800 μg/kg i.v.,-5 ± 2%
same,Δ SV,male Wistar rats; 800 μg/kg i.v.,-85.8 ± 9 µL
same,Δ SV %,male Wistar rats; 800 μg/kg i.v.,-72 ± 9%
same,Δ TV,male Wistar rats; 800 μg/kg i.v.,-93 ± 8%
same,Δ dp/dt,male Wistar rats; 800 μg/kg i.v.,+3282 ± 269 mmHg/sec
same,Δ dp/dt %,male Wistar rats; 800 μg/kg i.v.,+51 ± 7%
same,Δ AF,male Wistar rats; 1600 μg/kg i.v.,-36.1 ± 4.8 mL/min
same,Δ AF %,male Wistar rats; 1600 μg/kg i.v.,-83 ± 5%
same,Δ AP % DIAST,male Wistar rats; 1600 μg/kg i.v.,-47.0 ± 6.8%
same,Δ AP % SYST,male Wistar rats; 1600 μg/kg i.v.,-36.0 ± 5.3%
same,Δ AP DIAST,male Wistar rats; 1600 μg/kg i.v.,-43.4 ± 6.8 mmHg
same,Δ AP SYST,male Wistar rats; 1600 μg/kg i.v.,-41.1 ± 5.3 mmHg
same,Δ HR,male Wistar rats; 1600 μg/kg i.v.,-30 ± 6 beats/min
same,Δ HR %,male Wistar rats; 1600 μg/kg i.v.,-9 ± 3%
same,Δ SV,male Wistar rats; 1600 μg/kg i.v.,-97.4 ± 8 µL
same,Δ SV %,male Wistar rats; 1600 μg/kg i.v.,-82 ± 8%
same,Δ TV,male Wistar rats; 1600 μg/kg i.v.,-98 ± 5%
same,Δ dp/dt,male Wistar rats; 1600 μg/kg i.v.,+3676 ± 264 mmHg/sec
same,Δ dp/dt %,male Wistar rats; 1600 μg/kg i.v.,+57 ± 6%
same,Δ AF,male Wistar rats; 3200 μg/kg i.v.,-41.0 ± 6.9 mL/min
same,Δ AF %,male Wistar rats; 3200 μg/kg i.v.,-94 ± 7%
same,Δ AP % DIAST,male Wistar rats; 3200 μg/kg i.v.,-58.0 ± 4.2%
same,Δ AP % SYST,male Wistar rats; 3200 μg/kg i.v.,-42.0 ± 6.5%
same,Δ AP DIAST,male Wistar rats; 3200 μg/kg i.v.,-53.0 ± 4.2 mmHg
same,Δ AP SYST,male Wistar rats; 3200 μg/kg i.v.,-47.8 ± 6.5 mmHg
same,Δ HR,male Wistar rats; 3200 μg/kg i.v.,-41 ± 8 beats/min
same,Δ HR %,male Wistar rats; 3200 μg/kg i.v.,-12 ± 3%
same,Δ SV,male Wistar rats; 3200 μg/kg i.v.,-117.2 ± 8 µL
same,Δ SV %,male Wistar rats; 3200 μg/kg i.v.,-98 ± 8%
same,Δ TV,male Wistar rats; 3200 μg/kg i.v.,-100%
same,Δ dp/dt,male Wistar rats; 3200 μg/kg i.v.,+4708 ± 430 mmHg/sec
same,Δ dp/dt %,male Wistar rats; 3200 μg/kg i.v.,+73 ± 9%
same,reflected tachycardia (in words),"male Wistar rats; all dose levels, i.v., rat",does not cause any reflected tachycardia
same,bradycardia / reduction of heart rate (in words),"male Wistar rats; all doses, i.v., rat","reduction of heart rate (HR), at all doses"
same,action on the heart inotropism (in words),"male Wistar rats; i.v., rat",a constant stimulating action on the heart inotropism
same,hypotensive effect with respect to guanido-I (in words),"male Wistar rats; i.v., rat, vs guanido-I",higher pharmacological power as to hypotensive effect
same,"effects on AP, AF, RF and TV (in words)","male Wistar rats; i.v., increase at 50-100 or 50-200 μg/kg, decrease up to 3,200 μg/kg","biphasic effects on AP, AF, RF and TV"
COc1ccc(C=CC(=O)NCCCCNC(=N)NCC=C(C)C)cc1OC [guanido-I],LD50,[1],57 mg/kg
same,Δ AP DIAST,male Wistar rats; 50 μg/kg i.v.,-5 ± 1 mmHg
same,Δ AP SYST,male Wistar rats; 50 μg/kg i.v.,-4 ± 2 mmHg
same,Δ HR,male Wistar rats; 50 μg/kg i.v.,+8 ± 3 beats/min
same,Δ RF,male Wistar rats; 50 μg/kg i.v.,+6 ± 2 acts/min
same,Δ dp/dt,male Wistar rats; 50 μg/kg i.v.,+52 ± 8 mmHg/sec
same,Δ AP DIAST,male Wistar rats; 100 μg/kg i.v.,-6 ± 2 mmHg
same,Δ AP SYST,male Wistar rats; 100 μg/kg i.v.,-6 ± 2 mmHg
same,Δ HR,male Wistar rats; 100 μg/kg i.v.,+10 ± 1 beats/min
same,Δ RF,male Wistar rats; 100 μg/kg i.v.,+9 ± 4 acts/min
same,Δ dp/dt,male Wistar rats; 100 μg/kg i.v.,+141 ± 25 mmHg/sec
same,Δ AP DIAST,male Wistar rats; 200 μg/kg i.v.,-10 ± 2 mmHg
same,Δ AP SYST,male Wistar rats; 200 μg/kg i.v.,-11 ± 3 mmHg
same,Δ HR,male Wistar rats; 200 μg/kg i.v.,+13 ± 2 beats/min
same,Δ RF,male Wistar rats; 200 μg/kg i.v.,+12 ± 2 acts/min
same,Δ dp/dt,male Wistar rats; 200 μg/kg i.v.,+1284 ± 78 mmHg/sec
same,Δ AP DIAST,male Wistar rats; 400 μg/kg i.v.,-14 ± 3 mmHg
same,Δ AP SYST,male Wistar rats; 400 μg/kg i.v.,-15 ± 4 mmHg
same,Δ HR,male Wistar rats; 400 μg/kg i.v.,+14 ± 5 beats/min
same,Δ RF,male Wistar rats; 400 μg/kg i.v.,+16 ± 3 acts/min
same,Δ dp/dt,male Wistar rats; 400 μg/kg i.v.,+1712 ± 107 mmHg/sec
same,Δ AP DIAST,male Wistar rats; 800 μg/kg i.v.,-15 ± 3 mmHg
same,Δ AP SYST,male Wistar rats; 800 μg/kg i.v.,-17 ± 3 mmHg
same,Δ HR,male Wistar rats; 800 μg/kg i.v.,+18 ± 4 beats/min
same,Δ RF,male Wistar rats; 800 μg/kg i.v.,+25 ± 6 acts/min
same,Δ dp/dt,male Wistar rats; 800 μg/kg i.v.,+2140 ± 263 mmHg/sec
same,Δ AP DIAST,male Wistar rats; 1600 μg/kg i.v.,-18 ± 4 mmHg
same,Δ AP SYST,male Wistar rats; 1600 μg/kg i.v.,-21 ± 6 mmHg
same,Δ HR,male Wistar rats; 1600 μg/kg i.v.,+22 ± 3 beats/min
same,Δ RF,male Wistar rats; 1600 μg/kg i.v.,+23 ± 9 acts/min
same,Δ dp/dt,male Wistar rats; 1600 μg/kg i.v.,+2996 ± 104 mmHg/sec
same,Δ AP DIAST,male Wistar rats; 3200 μg/kg i.v.,-29 ± 4 mmHg
same,Δ AP SYST,male Wistar rats; 3200 μg/kg i.v.,-25 ± 5 mmHg
same,Δ HR,male Wistar rats; 3200 μg/kg i.v.,+25 ± 8 beats/min
same,Δ RF,male Wistar rats; 3200 μg/kg i.v.,+26 ± 7 acts/min
same,Δ dp/dt,male Wistar rats; 3200 μg/kg i.v.,+2984 ± 362 mmHg/sec
same,Δ AP DIAST,male Wistar rats; 6400 μg/kg i.v.,-29 ± 2 mmHg
same,Δ AP SYST,male Wistar rats; 6400 μg/kg i.v.,-34 ± 4 mmHg
same,Δ HR,male Wistar rats; 6400 μg/kg i.v.,+20 ± 4 beats/min
same,Δ RF,male Wistar rats; 6400 μg/kg i.v.,+29 ± 5 acts/min
same,Δ dp/dt,male Wistar rats; 6400 μg/kg i.v.,+3074 ± 441 mmHg/sec
same,effect on AP (in words),"male Wistar rats; i.v., 50-6400 μg/kg, rat",lowers the value of AP according to a linear dependence on the dose
same,"effect on HR, dp/dt and RF (in words)","male Wistar rats; i.v., 50-6400 μg/kg, rat","causes an increase in the values of HR, dp/dt and RF"
same,cardiovascular and respiratory effects (in words),"male Wistar rats; i.v., rat",giving hypotensive responses while increasing heart rate and inotropism as well as respiratory rate
same,changes in the tidal volume (TV) (in words),"male Wistar rats; i.v., rat",a linear increase has been observed with the doses
same,correlation with peripheral adrenergic receptors (α1-α2; β1-β2) (in words),"male Wistar rats; i.v., rat",do not seem to be correlated to significative actions of the active ingredient at the level of the peripheral adrenergic receptors
